Experimental data from ChEMBL document CHEMBL1201862, “PubChem BioAssay data set” (2004).
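Protocol summary: plate cells (96-well), add compound at 5 concentrations, incubate 48 h, interpolate endpoints linearly. GI50 = concentration required for 50% inhibition of growth.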 The source made the active and inactive calls. Cut-off read from the data, not from the text of the source: active = GI50 up to about 1.1 µM and inactive = higher.

Experiments:
Assay in all cases: DTP human tumour cell line panel, 48 h
COLO 205 = tested on: COLO 205
Hs-578T = tested on: Hs-578T
IGROV-1 = tested on: IGROV-1
DU-145 = tested on: DU-145
HT-29 = tested on: HT-29
NCI-H23 = tested on: NCI-H23
A498 = tested on: A498
RXF 393 = tested on: RXF 393
NCI-H226 = tested on: NCI-H226
UO-31 = tested on: UO-31
HOP-62 = tested on: HOP-62
OVCAR-8 = tested on: OVCAR-8
SF-268 = tested on: SF-268
OVCAR-5 = tested on: OVCAR-5
NCI-H522 = tested on: NCI-H522
NCI/ADR-RES = tested on: NCI/ADR-RES
BT-549 = tested on: BT-549
SF-539 = tested on: SF-539
SK-MEL-28 = tested on: SK-MEL-28
MDA-N = tested on: MDA-N
OVCAR-4 = tested on: OVCAR-4
ACHN = tested on: ACHN
SNB-19 = tested on: SNB-19
SW-620 = tested on: SW-620
UACC-62 = tested on: UACC-62
HCC 2998 = tested on: HCC 2998
SR = tested on: SR
SK-OV-3 = tested on: SK-OV-3
CCRF-CEM = tested on: CCRF-CEM
K562 = tested on: K562
MCF7 = tested on: MCF7
HCT-15 = tested on: HCT-15
SF-295 = tested on: SF-295
HOP-92 = tested on: HOP-92
PC-3 = tested on: PC-3
SNB-75 = tested on: SNB-75
MDA-MB-435 = tested on: MDA-MB-435
M14 = tested on: M14
OVCAR-3 = tested on: OVCAR-3
TK-10 = tested on: TK-10
A549 = tested on: A549
SK-MEL-2 = tested on: SK-MEL-2
NCI-H460 = tested on: NCI-H460
Malme-3M = tested on: Malme-3M
SN12C = tested on: SN12C
MDA-MB-231 = tested on: MDA-MB-231
LOX IMVI = tested on: LOX IMVI
HCT-116 = tested on: HCT-116
786-0 = tested on: 786-0
U-251 = tested on: U-251
CAKI-1 = tested on: CAKI-1
UACC-257 = tested on: UACC-257
SK-MEL-5 = tested on: SK-MEL-5
EKVX = tested on: EKVX
RPMI-8226 = tested on: RPMI-8226
T47D = tested on: T47D

Measured: GI50

O=C1NC2=NN=C(c3ccc(Br)cc3)CN2NC12c1ccccc1-c1ccccc12
> 100 µM: HCT-15
inactive: COLO 205 > 100 µM | Hs-578T 37 µM | IGROV-1 > 100 µM | DU-145 > 100 µM | HT-29 > 100 µM | NCI-H23 > 100 µM | A498 > 100 µM | RXF 393 > 100 µM | NCI-H226 > 100 µM | UO-31 > 100 µM | HOP-62 > 100 µM | OVCAR-8 > 100 µM | SF-268 > 100 µM | OVCAR-5 > 100 µM | NCI-H522 > 100 µM | NCI/ADR-RES > 100 µM | BT-549 > 100 µM | SF-539 > 100 µM | SK-MEL-28 > 100 µM | MDA-N > 100 µM | OVCAR-4 > 100 µM | ACHN > 100 µM | SNB-19 > 100 µM | SW-620 > 100 µM | UACC-62 > 100 µM | HCC 2998 > 100 µM | SR 69.2 µM | SK-OV-3 > 100 µM | CCRF-CEM 3.05 µM | K562 > 100 µM | MCF7 73.3 µM | SF-295 > 100 µM | HOP-92 > 100 µM | PC-3 > 100 µM | SNB-75 > 100 µM | MDA-MB-435 > 100 µM | M14 > 100 µM | OVCAR-3 > 100 µM | TK-10 > 100 µM | A549 > 100 µM | SK-MEL-2 > 100 µM | NCI-H460 > 100 µM | Malme-3M > 100 µM | SN12C > 100 µM | MDA-MB-231 > 100 µM | LOX IMVI > 100 µM | HCT-116 > 100 µM | 786-0 > 100 µM | U-251 > 100 µM | CAKI-1 > 100 µM | UACC-257 > 100 µM | SK-MEL-5 > 100 µM | EKVX > 100 µM

COc1ccc(N2C(=O)CC(Cl)C2=O)cc1 (stereo not given)
inactive: COLO 205 16.4 µM | Hs-578T > 100 µM | IGROV-1 > 100 µM | DU-145 94.6 µM | HT-29 17.8 µM | NCI-H23 23.3 µM | A498 > 100 µM | RXF 393 20 µM | NCI-H226 20.5 µM | UO-31 18.7 µM | HOP-62 > 100 µM | OVCAR-8 16.6 µM | SF-268 > 100 µM | OVCAR-5 18.2 µM | NCI-H522 17.5 µM | NCI/ADR-RES 32.4 µM | BT-549 > 100 µM | SF-539 18.2 µM | SK-MEL-28 16.6 µM | RPMI-8226 13.5 µM | OVCAR-4 19.1 µM | ACHN 17.9 µM | SNB-19 > 100 µM | SW-620 18.7 µM | T47D 18.9 µM | UACC-62 20.2 µM | HCC 2998 20.4 µM | SK-OV-3 > 100 µM | K562 6.05 µM | MCF7 60.1 µM | HOP-92 27.5 µM | PC-3 52.2 µM | SNB-75 > 100 µM | MDA-MB-435 > 100 µM | M14 > 100 µM | OVCAR-3 15.2 µM | TK-10 18.8 µM | A549 > 100 µM | SK-MEL-2 > 100 µM | NCI-H460 > 100 µM | Malme-3M 17.5 µM | SN12C 17.5 µM | MDA-MB-231 17.4 µM | LOX IMVI 23.3 µM | HCT-116 18.2 µM | 786-0 17.7 µM | U-251 > 100 µM | UACC-257 16.1 µM | SK-MEL-5 > 100 µM | EKVX > 100 µM
17.5 µM: HCT-15
